# Measurements taken from US12440610B2, “Coated medical devices and methods of inhibiting implant-associated infections” (UNIVERSITY OF CINCINNATI, priority 2017, dated 2025).
# “And” between values parts separate entries of the source, which are not always exact repeats. Equal entries are not always repeated.
# Key:
# [1] = tested on: P. aeruginosa (strain 762); test: In vitro bacterial adherence and colonization of coated implants, P. aeruginosa; assay type: cell-based; conditions: for reduction of P. aeruginosa adherent to PTFE in vitro / reduction of P. aeruginosa adherent to silk suture in vitro / reduction of P. aeruginosa adherent to titanium screws in vitro: 24 hours incubation, vs vehicle-coated controls; for reduction of P. aeruginosa adherent to silk suture in vitro: coated silk suture
# Procedure: Bacteria was prepared as in 2.3 and 1000 colony forming units (cfus) in 300 μL was placed in the wells of 96-well plates. […] Pieces were then placed in 10 mL sterile PBS and bath sonicated for 10 minutes to release adherent bacteria. Bacteria were quantified by the plate dilution method.
# [2] = cited from earlier work; for reported solubility in ethanol/alcohol (in words): literature
# [3] = tested on: P. aeruginosa (strain 762); test: Subcutaneous implant and infection of mice, P. aeruginosa colonization of implant; conditions: CF-1 mice, 2 million cfu, 3 days post infection; for reduction of P. aeruginosa colonization of PTFE in vivo: subcutaneous coated PTFE; for reduction of P. aeruginosa colonization of silk suture in vivo: subcutaneous coated silk suture; for reduction of P. aeruginosa colonization of titanium screws in vivo: subcutaneous coated titanium screws
# Source text: (§1) Intact 5 cm sections of PTFE graft, full 75 cm length of silk suture, and individual titanium screws were dip-coated into each antibiotic solution and immediately withdrawn at a rate of ˜200 mm/'s. Thin films of antibiotic were subsequently formed as the ethanol evaporated.
# (§2) After the PTFE, silk suture, and titanium are withdrawn from the antibiotic stock solution, they were allowed to further dry overnight at ambient conditions at room temperature. Vehicle (100% ethanol)-coated pieces were prepared in an identical manner, substituting absolute ethanol for the antibiotic stock solutions. PTFE implants were then cut to 5 mm×5 mm pieces, and silk suture was cut to 2 cm length for use in vitro and in vivo. Titanium screws were not further manipulated prior to use in vitro and in vivo.
# (§3) MRSA was obtained from the clinical microbiology lab of Shriner's Hospital for Children (Cincinnati, OH). […] P. aeruginosa was grown from frozen glycerol stock overnight on TSB agar plates. MRSA was grown overnight from frozen glycerol stock on TSB agar plates with 5% sheep's blood. […] Bacteria were then washed twice by centrifugation at 3000×g for 10 min and resuspension in 0.9% NaCl. The optical density of the suspended bacteria was determined at 550 nm light and final inoculating concentration calculated from standard curves specific to each strain. Bacteria remained in 0.9% NaCl for in viva testing but were placed back into TSB for in vitro testing.
# (§4) CF-1 mice were anesthetized with 120 mg/kg ketamine/16 mg/kg xylazine injected intraperitoneally and their backs shaved with electric clippers. A 2 cm incision was made in the back and implants (5 mm×5 mm PTFE, 2 cm silk suture, or titanium screws) were placed subcutaneously (n=9 per group).
# (§5) Mice were sacrificed 3 days post infection. The implant capsule was entered with sterile instruments and the implant was removed and placed in 10 mL of sterile PBS. […] The implants and tissue were placed in a bath sonicator for 10 min to release adherent bacteria. Bacteria were then quantified by the plate dilution method. The most concentrated solution plated for each sample was a 1:100 dilution.
# physchem = conditions: 65 °C, organic solvent or mixture, thermodynamic from solid
# Procedure: The process involved heating the ethanol to 65° C. and slowly adding the solid solute under bath sonication and manual agitation until the resulting solution was transparent. Dip coating was then carried out at room temperature immediately after removing the stock solutions from the heated water bath.
# The reported solubility in the literature of the above antibiotics in ethanol are incompletely studied.
# [4] = tested on: methicillin resistant S. aureus (MRSA); test: In vitro bacterial adherence and colonization of coated implants, MRSA; assay type: cell-based; conditions: 24 hours incubation; for reduction of MRSA adherent to PTFE in vitro: coated PTFE; for reduction of MRSA adherent to PTFE in vitro / reduction of MRSA adherent to titanium screws in vitro: vs vehicle-coated controls; for reduction of MRSA adherent to silk suture in vitro: coated silk suture, vs vehicle (100% ethanol)-coated controls; for reduction of MRSA adherent to titanium screws in vitro: coated titanium screws
# Procedure: Small pieces of PTFE (5 mm×5 mm), silk suture (2 cm), and titanium screws antibiotic-coated and vehicle (100% ethanol)-coated, were prepared for analysis as in Example 1.2. Bacteria was prepared as in 2.3 and 1000 colony forming units (cfus) in 300 μL was placed in the wells of 96-well plates. The antibiotic-coated and vehicle-coated pieces were then immersed and incubated for 24 hours at 37° C., 95% humidity (n=15 per group). Pieces were then placed in 10 mL sterile PBS and bath sonicated for 10 minutes to release adherent bacteria. Bacteria were quantified by the plate dilution method.
# [5] = tested on: methicillin resistant S. aureus (MRSA); test: Subcutaneous implant and infection of mice, MRSA colonization of implant; conditions: CF-1 mice, 2.5 million cfu, 3 days post infection; for reduction of MRSA colonization of PTFE in vivo: subcutaneous coated PTFE; for reduction of MRSA colonization of silk suture in vivo: subcutaneous coated silk suture; for reduction of MRSA colonization of titanium screws in vivo: subcutaneous coated titanium screws
# Source text: as §1, §2, §3, §4, §5
compound,measurement,setting,value
CC[C@H]1OC(=O)[C@H](C)[C@@H](O[C@H]2C[C@@](C)(OC)[C@@H](O)[C@H](C)O2)[C@H](C)[C@@H](O[C@@H]2O[C@H](C)C[C@H](N(C)C)[C@H]2O)[C@](C)(O)C[C@@H](C)C(=O)[C@H](C)[C@@H](O)[C@]1(C)O [Erythromycin],reduction of P. aeruginosa adherent to PTFE in vitro,[1]; coated PTFE,5.8 log
same,PA adherence to PTFE (in words),"[1]; coated PTFE, in vitro, p<0.05",significantly reduced
same,reduction of P. aeruginosa adherent to silk suture in vitro,[1],1.6 log
same,reduction of P. aeruginosa adherent to titanium screws in vitro,[1]; coated titanium screws,5.1 log
same,PA adherence to titanium screws (in words),"[1]; coated titanium screws, in vitro, p<0.05",significantly reduced
same,ethanol solubility reported by Sigma,"[2]; ethanol, vendor value",50 mg/mL
same,reported solubility in ethanol/alcohol (in words),[2],freely soluble
same,reduction of P. aeruginosa colonization of PTFE in vivo,[3],4.4 log and 3.3 log
same,reduction of P. aeruginosa colonization of silk suture in vivo,[3],0.6 log and 0.4 log
same,reduction of P. aeruginosa colonization of titanium screws in vivo,[3],0.5 log and 0.4 log
same,solubility,physchem,166000 µg/mL and 227000 µM
same,reduction of MRSA adherent to PTFE in vitro,[4],5.7 log and 4.5 log
same,reduction of MRSA adherent to silk suture in vitro,[4],5.2 log
same,reduction of MRSA adherent to titanium screws in vitro,[4],5.2 log and 5.3 log
same,reduction of MRSA colonization of PTFE in vivo,[5],3.8 log and 3.2 log
same,reduction of MRSA colonization of silk suture in vivo,[5],5.1 log
same,reduction of MRSA colonization of titanium screws in vivo,[5],2.2 log and 2.5 log
C[C@H]1COc2c(N3CCN(C)CC3)c(F)cc3c(=O)c(C(=O)O)cn1c23 [Levofloxacin],reduction of P. aeruginosa adherent to PTFE in vitro,[1]; coated PTFE,6.2 log
same,reduction of P. aeruginosa adherent to PTFE in vitro,"[1]; coated PTFE, listed as levofloxacin",6.1 log
same,reduction of P. aeruginosa adherent to silk suture in vitro,[1],6.0 log
same,reduction of P. aeruginosa adherent to titanium screws in vitro,[1]; coated titanium screws,6.4 log
same,reduction of P. aeruginosa colonization of PTFE in vivo,[3],4.4 log and 3.7 log
same,reduction of P. aeruginosa colonization of silk suture in vivo,[3],3.9 log and 4.3 log
same,reduction of P. aeruginosa colonization of titanium screws in vivo,[3],4.0 log and 3.3 log
same,reduction of MRSA adherent to PTFE in vitro,[4],3.9 log
same,reduction of MRSA adherent to PTFE in vitro,[4]; listed as levofloxacin,5.7 log
same,reduction of MRSA adherent to silk suture in vitro,[4],5.2 log
same,reduction of MRSA adherent to titanium screws in vitro,[4],5.3 log
same,reduction of MRSA adherent to titanium screws in vitro,[4]; listed as levofloxacin,5.2 log
same,reduction of MRSA colonization of PTFE in vivo,[5],4.5 log and 3.7 log
same,reduction of MRSA colonization of silk suture in vivo,[5],5.1 log and 4.0 log
same,reduction of MRSA colonization of titanium screws in vivo,[5],3.3 log and 3.0 log
"C[C@H]1c2cccc(O)c2C(=O)C2=C(O)[C@]3(O)C(=O)C(C(N)=O)=C(O)[C@@H](N(C)C)[C@@H]3[C@@H](O)[C@@H]21 [Doxycycline, Doxycycline Hyclate]",reduction of P. aeruginosa adherent to PTFE in vitro,[1]; coated PTFE,5.5 log
same,reduction of P. aeruginosa adherent to PTFE in vitro,"[1]; coated PTFE, listed as doxycycline",6.1 log
same,reduction of P. aeruginosa adherent to silk suture in vitro,[1],4.4 log
same,reduction of P. aeruginosa adherent to silk suture in vitro,[1]; listed as doxycycline,6.0 log
same,reduction of P. aeruginosa adherent to titanium screws in vitro,[1]; coated titanium screws,6.4 log
same,reported solubility in ethanol/alcohol (in words),[2],sparingly soluble
same,reduction of P. aeruginosa colonization of PTFE in vivo,[3],4.4 log and 2.7 log
same,reduction of P. aeruginosa colonization of silk suture in vivo,[3],1.2 log and 1.1 log
same,reduction of P. aeruginosa colonization of titanium screws in vivo,[3],3.7 log and 2.8 log
same,solubility,physchem,41000 µg/mL and 80000 µM
same,reduction of MRSA adherent to PTFE in vitro,[4],5.7 log
same,reduction of MRSA adherent to silk suture in vitro,[4],5.2 log
same,reduction of MRSA adherent to titanium screws in vitro,[4],5.3 log
same,reduction of MRSA adherent to titanium screws in vitro,[4]; listed as doxycycline,5.2 log
same,reduction of MRSA colonization of PTFE in vivo,[5],4.6 log and 4.7 log
same,reduction of MRSA colonization of silk suture in vivo,[5],3.2 log and 2.1 log
same,reduction of MRSA colonization of titanium screws in vivo,[5],3.1 log and 3.0 log
O=C(N[C@H](CO)[C@H](O)c1ccc([N+](=O)[O-])cc1)C(Cl)Cl [Chloramphenicol],reduction of MRSA adherent to PTFE in vitro,[4],5.7 log
same,reduction of MRSA adherent to silk suture in vitro,[4],5.2 log
same,reduction of MRSA adherent to titanium screws in vitro,[4],5.3 log
same,reduction of MRSA adherent to titanium screws in vitro,[4]; listed as chloramphenicol,5.2 log
same,reduction of MRSA colonization of PTFE in vivo,[5],3.1 log and 2.3 log
same,reduction of MRSA colonization of silk suture in vivo,[5],1.2 log and 1.1 log
same,reduction of MRSA colonization of titanium screws in vivo,[5],2.2 log and 2.3 log
